The record followed here is patent US11458203B2, “Pharmaceutical compositions comprising caffeic acid chelates” (Arizona Board of Regents, on behald of Arizona State …, priority 2017, dated 2022).

The subject of one data set is HSV1. Put plainly: HSV1 plaque formation assay in Vero cells. Format: cell-based. Particulars: for IC50: read-out: HSV1 IC50; for antiviral activity of the substance by itself (in words): component alone, not combined.
The test system of another data set is Zika virus. Format: cell-based. Particulars: at the concentrations tested.
Data set [1] has as its system vaccinia virus (Copenhagen strain). It counts as cell-based. To be noted: FIG. 6.
The subject of data set [2] is vesicular stomatitis virus (VSV). Format: cell-based. Particulars: FIG. 6.
In the next data set the test system is Vero cells. To be noted: African green monkey, 24 h, 27000 μM.
The next data set relates to Rhinovirus 14. It counts as cell-based.
The next data set relates to reovirus type 3. Format: cell-based.
A further data set relates to HSV2. Description: HSV2 plaque formation assay in Vero cells. It counts as cell-based. Particulars: FIG. 6. On the procedure:
The antiviral assays were conducted as follows. For HSV1 and HSV2, Vero cells were grown in Dulbecco's minimal essential media containing 10% heat inactivated fetal bovine serum and antibiotic/antimycotic (ThermoFisher) in a 37° C., 5% CO2 incubator. Cells were seeded in standard 6-well tissue culture dishes. HSV1 virus was diluted to 100 plaque forming units/100 μL complete media. The virus samples were treated for 15 minutes with the indicated concentrations of the test compound/material. These treated viral samples were used to infect the confluent Vero cell monolayers. Cells were infected for 1 hour at 37° C. with occasional rocking. After 1 hour, 2 mLs of complete media was added to each well. The test compound was added to the media at the indicated concentration. The dishes were placed in the incubator for 3 days. After 3 days, the media was removed and the cells stained with 0.5% crystal violet. The number of plaques present were counted by hand and graphed as a percent relative to untreated samples.

A further data set concerns VSV-Ebola pseudotype. Format: cell-based, VSV-Ebola pseudotype (Zaire Ebola virus glycoprotein).
Where [3] appears, read: test compound paired with Fe^3+, FIG. 7 and FIG. 8.
Where [4] appears, read: Human alphaherpesvirus 1, Vero, test compound paired with Fe^3+, single dose-response trial, minimum three concentrations, FIG. 7 and FIG. 8.

Read-outs that look alike come from different tables or passages of the source.

On to `O=C(O)C=Cc1ccc(O)cc1O` [2,4-dihydroxycinnamic acid], for which the “anti-HSV1 activity (in words)” value in the data set with HSV1 (setting [3]) is “inactivity”.

On to `O=C(O)c1ccc(O)c(O)c1` [3,4-dihydroxybenzoic acid], for which the “anti-HSV1 activity (in words)” value in the data set on HSV1 (setting [3]) is recorded as “low activity”.

As usually defined, the IC50 is the concentration that gives 50% inhibition. As to `O=C(O)Cc1ccc(O)c(O)c1` [3,4-dihydroxylphenylacetic acid], in the data set on HSV1 (setting [4]), the IC50 was 101 µM.

As for `O=C(O)C(O)Cc1ccc(O)c(O)c1` (stereo not drawn) [Danshensu, 3-(3,4-dihydroxyphenyl)-2-hydroxypropanoic acid], the IC50 with HSV1 (Human alphaherpesvirus 1, Vero) came to 47.1 µM.

As for `CC(Cc1ccc(O)c(O)c1)C(C)Cc1ccc(O)c(O)c1` (stereo not drawn) [Nordihydroguaiaretic acid], the “anti-HSV1 activity at highest concentration tested” value with HSV1 (combined with iron(III), at 330 μM, FIG. 8) is given as “no activity”. Besides, the “anti-HSV1 activity (in words)” value was “low activity” in the data set on HSV1 (setting [3]); “no anti-HSV1 activity” with HSV1 (test compound paired with Fe^3+, FIG. 7 and FIG. 8, listed as nordihydroguaiaretic acid).

Take `O=S(=O)(O)c1cc(O)c(O)c(S(=O)(=O)O)c1` [Tiron]: the “anti-HSV1 activity (in words)” value with HSV1 (setting [3]) is recorded as “low activity”.

As to `Nc1nc2c(ncn2COCCO)c(=O)[nH]1` [acyclovir], in the data set with HSV1 (positive control, FIG. 1 trial), the “activity relative to the caffeic acid and iron chelates” value is on record as “about 20 fold”.

Usually cell viability stands for a read-out of living cells in per cent, often relative to untreated cells. Read a high cell viability as less harm to the cells. What is called EC50 is the concentration at which the effect is half-maximal. In the case of `O=C(O)C=Cc1ccc(O)c(O)c1` [caffeic acid, 3,4-dihydroxycinnamic acid], the “effect on Zika virus (in words)” value with Zika virus is “unaffected”. Also, the “effect on vaccinia virus (in words)” value in data set [1] is listed as “minimal effect”. Further, the “effect on wild type VSV (in words)” value in data set [2] is “minimal effect”. In addition, the cell viability in the data set on Vero cells was no less than 90%. Besides, in the data set on Rhinovirus 14, the “effect on Rhinovirus (in words)” value is recorded as “unaffected”. Further, in the data set with HSV1 (Human alphaherpesvirus 1, Vero, FIG. 1, inorganic ions added at half molar ratio to caffeic acid (2:1 organic:inorganic), caffeic acid alone = average of two separate tests, read-out: HSV1 EC50 (inhibition of plaque formation)), the EC50 amounted to 18600 µM. For the same molecule, the IC50 in the data set on HSV1 (setting [4]) was 66.7 µM. For the same molecule, the “antiviral activity of the substance by itself (in words)” value with HSV1 is on record as “weak antiviral properties”; with HSV1 (listed as Caffeic acid), “minimal effect”. The “effect on Reovirus (in words)” value in the data set with reovirus type 3 is reported as “unaffected”. The “effect on HSV2 (in words)” value in the data set with HSV2 is recorded as “minimal effect”. In addition, the “effect on VSV-Ebola pseudotype (in words)” value with VSV-Ebola pseudotype is given as “minimal effect”.

In the case of `Oc1ccccc1O` [catechol], in the data set with HSV1 (setting [3]), the “anti-HSV1 activity (in words)” value was “low activity”.

Take `NCCc1ccc(O)c(O)c1` [dopamine]: the “anti-HSV1 activity (in words)” value with HSV1 (setting [3]) is listed as “low activity”.

Take `[Cl][Fe]([Cl])[Cl]` [iron(III), iron(III) chloride]: the “antiviral activity of the substance by itself (in words)” value in the data set on HSV1 is “no antiviral properties”; in the data set on HSV1 (listed as Iron(III)) it was “no detectable antiviral activity”.

Consider `O=C(/C=C/c1ccc(O)c(O)c1)O[C@H](Cc1ccc(O)c(O)c1)C(=O)O` [rosmarinic acid], for which the concentration for half-maximal inhibition (IC50) in the data set on HSV1 (setting [4]) stood at 101 µM.

As to caffeic acid+sulfate, the “anti-HSV1 activity compared with caffeic acid alone” value in the data set on HSV1 (FIG. 1, ion at half molar ratio to caffeic acid) is recorded as “no increased activity over caffeic acid alone”.

Take chicoric acid: the “anti-HSV1 activity relative to caffeic acid, molar basis” value in the data set with HSV1 (paired with Fe^3+, FIG. 8) is “a little over triple that of caffeic acid”. The IC50 in the data set on HSV1 (test compound paired with Fe^3+, single dose-response trial, minimum three concentrations, FIG. 7 and FIG. 8) is 17.4 µM.

Take copper(II): the “inhibition of plaque formation” value with HSV1 (inorganic ions in the absence of caffeic acid, 83 μM (highest dose tested), FIG. 2 and FIG. 3) turned out to be 38%.
